We go through 11 compounds from US20250163056A1, “NONMUSCLE MYOSIN II INHIBITORS” (The University of Florida Research Foundation, Inc., priority 2018, published 2025).

The target in one data set is Bovine cardiac myosin (Bos taurus (Bovine), UniProt Q9BE39). Put plainly: Cardiac muscle myosin II actin-activated ATPase assay (NADH-coupled). The data set is classed as biochemical. On the set-up: key to Ratio CMMII:NMII Ki/EC50: NMII-sel: no Ki value for cardiac myosin II could be determined; the compounds had no detectable inhibitory properties versus the cardiac myosin II. The settings on record: for Ratio CMMII:NMII Ki/EC50: cardiac myosin II Ki over nonmuscle myosin II EC50; for Ki: 300 nM cardiac myosin, 10 μM actin, 25° C., read-out: CMMII KI. The text has this:
(§1) The cardiac muscle myosin II actin-activated ATPase assay is a biochemical assay. Specifically, it is an NADH (nicotinamide adenine dinucleotide)-coupled ATPase assay that relies on NADH fluorescence as a readout. Cardiac myosin is a mechanochemical energy transducer that hydrolyzes ATP to generate force in the presence of its activator, F-actin. The resulting ADP is regenerated to ATP by pyruvate kinase (PK) that transforms one molecule of phosphoenolpyruvate (PEP) to pyruvate in parallel. Subsequently, pyruvate is reduced to lactate by lactate dehydrogenase (LDH) that, in turn, oxidizes one molecule of NADH to NAD. Therefore, the decrease in NADH concentration as a function of time equals the ATP hydrolysis rate. Bovine cardiac myosin is obtained from a commercial source, Cytoskeleton. PK, LDH, ATP, PEP, and NADH are obtained from Sigma. F-actin is prepared in house from Rabbit Muscle Acetone Powder. The assay is run at 25° C. in 384 well black-wall polystyrene microplates with a total volume of 20 μl per well. NADH fluorescence is monitored for 30 minutes with an EnVision Multimode Plate Reader. The slope of the fluorescence response, which is proportional to the reaction rate, is determined by simple linear regression. Final assay conditions are 300 nM cardiac myosin, 10 μM actin, 40 U/ml LDH, 200 U/ml PK, 220 μM NADH, 1 mM PEP, 1 mM ATP in a buffer containing 10 mM 3-(N-morpholino)propanesulfonic acid (pH=7.0), 2 mM MgCl2, 0.15 mM ethylene glycol-bis(p-aminoethyl ether)-N,N,N′,N′-tetraacetic acid, 0.1 mg/mL bovine serum albumin, 0.5% (V/V) dimethyl sulfoxide (DMSO) and 1 mM dithiothreitol. Prior to testing the inhibitory activity of the compounds, a two-fold dilution series starting at 10 mM compound concentration is prepared in DMSO. Subsequently, 100 nl is transferred to each well of the measuring plate containing a mixture of myosin, LDH and PK. The enzymatic reaction is started with the addition of a mixture containing ATP, PEP, NADH and actin. The highest final compound concentration is 50 uM. 20 μM para-aminoblebbistatin in 0.5% DMSO serves as the positive control and 0.5% DMSO alone is the negative control. Reaction rates are determined by using the fluorescence responses of a dilution series of NADH included in all plates and plotted as a function of inhibitor concentration. All measurements are carried out in triplicate. Inhibitory constants are determined by fitting the 16 point dose-response data to a quadratic equation corresponding to a simple one-to-one binding model.

A further data set has as its target Rabbit skeletal myosin. Description: Skeletal muscle myosin II actin-activated ATPase assay. Type of data set: biochemical. The settings on record: 20 nM skeletal muscle myosin II; read-out: SKMMII KI.
Excerpt: as §1
The skeletal muscle myosin II actin-activated ATPase assay is performed the same as for cardiac muscle myosin II with the following exceptions: Rabbit skeletal myosin is obtained from Cytoskeleton and the final assay conditions contain 20 nM skeletal muscle myosin II.

Data set [1] in a line: Photostability, percentage remaining undegraded under illumination or in the dark. The note with it: for Photostability 4 hours: percentage remaining undegraded after 4 hours illumination; for Photostability 24 hours: percentage remaining undegraded after 24 hours illumination; for Photostability Dark (24 h): percentage remaining undegraded in the dark.

SMILES strings stand for the structures. Bounds are passed on as bounds.

Sequence of Bovine cardiac myosin (Q9BE39 whole entry): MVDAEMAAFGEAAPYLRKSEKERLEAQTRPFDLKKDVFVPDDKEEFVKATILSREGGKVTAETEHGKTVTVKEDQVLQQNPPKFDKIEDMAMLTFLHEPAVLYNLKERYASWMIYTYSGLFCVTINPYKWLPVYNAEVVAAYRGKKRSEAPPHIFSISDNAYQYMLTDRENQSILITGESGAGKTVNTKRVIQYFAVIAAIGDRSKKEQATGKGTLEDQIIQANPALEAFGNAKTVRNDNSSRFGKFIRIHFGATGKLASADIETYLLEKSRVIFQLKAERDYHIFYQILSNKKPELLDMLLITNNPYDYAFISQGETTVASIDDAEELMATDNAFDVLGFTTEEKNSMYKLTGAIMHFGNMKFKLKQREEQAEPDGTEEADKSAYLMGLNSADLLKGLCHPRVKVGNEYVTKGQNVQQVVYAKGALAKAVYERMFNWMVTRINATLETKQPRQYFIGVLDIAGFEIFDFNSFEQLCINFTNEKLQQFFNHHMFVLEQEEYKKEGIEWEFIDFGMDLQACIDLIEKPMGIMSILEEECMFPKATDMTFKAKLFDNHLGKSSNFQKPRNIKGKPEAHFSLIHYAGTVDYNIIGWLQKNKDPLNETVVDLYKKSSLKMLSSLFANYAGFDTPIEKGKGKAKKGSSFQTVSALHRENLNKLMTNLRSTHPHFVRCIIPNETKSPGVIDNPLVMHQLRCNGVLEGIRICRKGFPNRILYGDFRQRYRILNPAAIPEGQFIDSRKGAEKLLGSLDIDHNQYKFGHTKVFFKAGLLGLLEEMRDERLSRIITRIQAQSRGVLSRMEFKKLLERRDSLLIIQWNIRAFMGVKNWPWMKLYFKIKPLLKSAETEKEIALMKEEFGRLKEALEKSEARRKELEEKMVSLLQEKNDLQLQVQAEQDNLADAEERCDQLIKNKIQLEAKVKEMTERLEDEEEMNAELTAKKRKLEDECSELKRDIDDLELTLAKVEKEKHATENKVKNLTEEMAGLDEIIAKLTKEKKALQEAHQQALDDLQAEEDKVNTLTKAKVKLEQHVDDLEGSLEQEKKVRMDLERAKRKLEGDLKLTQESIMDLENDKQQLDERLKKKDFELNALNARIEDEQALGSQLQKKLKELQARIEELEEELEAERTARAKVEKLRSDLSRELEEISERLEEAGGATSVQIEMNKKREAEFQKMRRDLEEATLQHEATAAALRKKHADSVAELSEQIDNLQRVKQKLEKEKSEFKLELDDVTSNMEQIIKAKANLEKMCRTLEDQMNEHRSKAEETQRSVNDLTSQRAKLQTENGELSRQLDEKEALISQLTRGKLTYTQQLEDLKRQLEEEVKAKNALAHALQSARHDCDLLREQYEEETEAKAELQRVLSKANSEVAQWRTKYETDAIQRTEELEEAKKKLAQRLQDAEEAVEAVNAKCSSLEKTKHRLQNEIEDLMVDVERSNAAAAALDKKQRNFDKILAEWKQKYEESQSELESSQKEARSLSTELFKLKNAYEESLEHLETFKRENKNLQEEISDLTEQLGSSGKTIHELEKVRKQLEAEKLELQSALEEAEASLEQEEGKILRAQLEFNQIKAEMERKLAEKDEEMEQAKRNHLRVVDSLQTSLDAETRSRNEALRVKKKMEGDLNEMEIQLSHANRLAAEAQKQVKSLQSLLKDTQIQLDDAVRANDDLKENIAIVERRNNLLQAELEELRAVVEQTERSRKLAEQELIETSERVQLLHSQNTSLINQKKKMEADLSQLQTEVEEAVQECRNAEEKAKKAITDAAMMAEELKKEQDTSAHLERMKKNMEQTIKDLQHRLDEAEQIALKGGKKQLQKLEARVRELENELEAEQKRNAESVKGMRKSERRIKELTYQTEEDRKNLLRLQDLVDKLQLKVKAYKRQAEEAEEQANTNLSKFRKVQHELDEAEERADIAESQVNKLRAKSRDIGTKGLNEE
Sequence of Bovine cardiac myosin (P85100 whole entry partner): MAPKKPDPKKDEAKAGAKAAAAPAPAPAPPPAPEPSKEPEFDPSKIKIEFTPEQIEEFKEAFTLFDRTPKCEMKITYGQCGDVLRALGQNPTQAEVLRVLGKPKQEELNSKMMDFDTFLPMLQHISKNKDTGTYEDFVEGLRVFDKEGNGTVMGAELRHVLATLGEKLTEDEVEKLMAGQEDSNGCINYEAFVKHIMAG
Sequence of Bovine cardiac myosin (Q3SZE5 whole entry partner): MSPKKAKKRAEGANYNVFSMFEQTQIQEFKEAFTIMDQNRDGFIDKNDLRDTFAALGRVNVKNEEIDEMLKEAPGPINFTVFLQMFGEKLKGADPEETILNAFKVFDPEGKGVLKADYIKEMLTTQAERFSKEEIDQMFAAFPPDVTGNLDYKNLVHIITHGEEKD

With `Cc1cc(N2CC[C@@]3(O)C(=O)c4cc(Cl)ccc4N=C23)ccc1C#N` [BPN-0026457], the “Ratio CMMII:NMII Ki/EC50” value at Bovine cardiac myosin is recorded as “NMII-sel”. Besides, the Ki (in general, the equilibrium dissociation constant of an inhibitor or competing ligand from its target) at Rabbit skeletal myosin stood at 15 µM. For the same compound, in data set [1], the “Photostability 4 hours” value worked out at 98.6%, the “Photostability 24 hours” value is 77.1% and the “Photostability Dark (24 h)” value is given as above 99%.

`O=C1c2cc(C(F)(F)F)ccc2N=C2N(c3ccc4ccoc4c3)CC[C@@]12O` [BPN-0026495]: the “Ratio CMMII:NMII Ki/EC50” value at Bovine cardiac myosin is listed as “NMII-sel”. On Rabbit skeletal myosin, the inhibition constant (Ki) stood at 20 µM. In data set [1], the “Photostability 4 hours” value is recorded as 80.9%, the “Photostability 24 hours” value came out at 15.9% and the “Photostability Dark (24 h)” value worked out at 93.4%.

On to `COc1cccc(N2CC[C@@]3(O)C(=O)c4cc(C)c(C)cc4N=C23)c1` [BPN-0026496], for which, at Bovine cardiac myosin, the inhibitory constant (Ki) turned out to be 83 µM and the “Ratio CMMII:NMII Ki/EC50” value is reported as 31.9. Further, the Ki on Rabbit skeletal myosin was found to be 15 µM. For the same compound, in data set [1], the “Photostability 4 hours” value was 41.7%, the “Photostability 24 hours” value is 3.5% and the “Photostability Dark (24 h)” value amounted to 97.9%.

Take `COc1cccc(N2CC[C@@]3(O)C(=O)c4cc(C)c(C)cc4N=C23)c1` [BPN-0026497]: at Bovine cardiac myosin, the inhibition constant (Ki) turned out to be 33 µM and the “Ratio CMMII:NMII Ki/EC50” value is recorded as 15.7. The inhibition constant Ki at Rabbit skeletal myosin stood at 9.8 µM. Besides, in data set [1], the “Photostability 4 hours” value came out at 82.7%, the “Photostability 24 hours” value turned out to be 6.1% and the “Photostability Dark (24 h)” value was 97.5%.

With `Cc1cc2c(cc1C)C(=O)[C@]1(O)CCN(c3ccc(C#N)cc3)C1=N2` [BPN-0026499], at Bovine cardiac myosin, the inhibitory constant (Ki) was 5.7 µM and the “Ratio CMMII:NMII Ki/EC50” value is listed as 12.4. In addition, at Rabbit skeletal myosin, the inhibition constant (Ki) is 0.18 µM. Further, in data set [1], the “Photostability 4 hours” value was determined as 97.7%, the “Photostability 24 hours” value is recorded as 84.9% and the “Photostability Dark (24 h)” value is recorded as above 99%.

With `Cc1cc2c(cc1C)C(=O)[C@]1(O)CCN(c3cccc(Cl)c3)C1=N2` [BPN-0026500], at Bovine cardiac myosin, the “Ratio CMMII:NMII Ki/EC50” value was “NMII-sel”. Moreover, the inhibition constant (Ki) on Rabbit skeletal myosin worked out at 23 µM. In data set [1], the “Photostability 4 hours” value turned out to be 92.2%, the “Photostability 24 hours” value amounted to 22.8% and the “Photostability Dark (24 h)” value is above 99%.

Consider `COc1cc(N2CC[C@@]3(O)C(=O)c4cc(C(F)(F)F)ccc4N=C23)ccn1` [BPN-0026533], for which, at Bovine cardiac myosin, the “Ratio CMMII:NMII Ki/EC50” value was “NMII-sel”. Moreover, the inhibition constant Ki on Rabbit skeletal myosin amounted to 60 µM. Moreover, in data set [1], the “Photostability 4 hours” value was 87.7%, the “Photostability 24 hours” value came out at 6.4% and the “Photostability Dark (24 h)” value is listed as 91.7%.

Turning to `O=C1c2cc(C(F)(F)F)ccc2N=C2N(c3ccc(Cl)cc3)CC[C@@]12O` [BPN-0026544], the “Ratio CMMII:NMII Ki/EC50” value at Bovine cardiac myosin was “NMII-sel”. Moreover, on Rabbit skeletal myosin, the Ki was 4.8 µM. Moreover, in data set [1], the “Photostability 4 hours” value amounted to 51.1%, the “Photostability 24 hours” value was 10.8% and the “Photostability Dark (24 h)” value turned out to be 93.7%.

On to `O=C1c2cc(Cl)ccc2N=C2N(c3ccc4ccsc4c3)CC[C@@]12O` [BPN-0026545], for which the “Ratio CMMII:NMII Ki/EC50” value on Bovine cardiac myosin is “NMII-sel”. Further, on Rabbit skeletal myosin, the Ki came to 12 µM. For the same compound, in data set [1], the “Photostability 4 hours” value is given as 89.4%, the “Photostability 24 hours” value is reported as 5.1% and the “Photostability Dark (24 h)” value is on record as above 99%.

As for `O=C1c2cc(Cl)ccc2N=C2N(c3ccc4sccc4c3)CC[C@@]12O` [BPN-0026546], on Bovine cardiac myosin, the “Ratio CMMII:NMII Ki/EC50” value is given as “NMII-sel”. Moreover, at Rabbit skeletal myosin, the Ki turned out to be 22 µM. In addition, in data set [1], the “Photostability 4 hours” value is 81.2%, the “Photostability 24 hours” value is recorded as 12.5% and the “Photostability Dark (24 h)” value stood at 93.5%.

With `Cc1cc2c(s1)N=C1N(c3ccc(C#N)c(C)c3)CC[C@@]1(O)C2=O` [BPN-0026576], on Bovine cardiac myosin, the Ki is 18 µM and the “Ratio CMMII:NMII Ki/EC50” value is 3.3. The Ki at Rabbit skeletal myosin was found to be 4.6 µM. In addition, in data set [1], the “Photostability 4 hours” value amounted to 98.6%, the “Photostability 24 hours” value was above 99% and the “Photostability Dark (24 h)” value was above 99%.
